Each structure is given as a SMILES string.

Series [1] relates to Pseudomonas aeruginosa. The series can be described thus: Potentiation of imipenem induced antibacterial activity against isogenic efflux wild type Pseudomonas aeruginosa MB9798 harbouring IMP incubated for 18 to 22 hrs imipenem and beta lactamase inhibitor by spectrophotometer based analysis. The format is functional. Conditions: time 18-22 hrs.
For the next series, the system named is Klebsiella pneumoniae. The experiment in a line: Potentiation of imipenem induced antibacterial activity against Klebsiella pneumoniae IHMA599644 harbouring VIM-1 incubated for 18 to 22 hrs imipenem by spectrophotometer based analysis. The format is functional. To be noted: time 18-22 hrs.
In series [2] the test system is Pseudomonas aeruginosa. The series can be described thus: Potentiation of imipenem induced antibacterial activity against isogenic efflux deleted mutant Pseudomonas aeruginosa MB9799 harbouring IMP incubated for 18 to 22 hrs imipenem and beta lactamase inhibitor by spectrophotometer based analysis. Conditions: time 18-22 hrs. The format is functional.
Series [3] in a line: Inhibition of GST tagged NDM-1 (unknown origin) expressed in Escherichia coli BL21 Star (DE3) competent cells using CCF2-FA as substrate incubated for 2 hrs by fluorescence based analysis.
Series [4] in a line: Cmax in Wistar rat at 5 mg/kg, iv administered as bolus dose measured after 24 hrs by HPLC-MS analysis. Conditions: in vivo. The series is classed as ADME, organism-based.
Another series has as its system Escherichia coli. The experiment in a line: Potentiation of imipenem induced antibacterial activity against Escherichia coli CLB30005 harbouring NDM-1 incubated for 18 to 22 hrs in presence of imipenem by spectrophotometer based analysis. The format is functional. Conditions: time 18-22 hrs.
Series [5] in a line: Inhibition of GST tagged VIM-1 (unknown origin) expressed in Escherichia coli BL21 Star (DE3) competent cells using CCF2-FA as substrate incubated for 2 hrs by fluorescence based analysis.
A further series has as its system Serratia marcescens. The experiment in a line: Potentiation of imipenem induced antibacterial activity against Serratia marcescens CL5741 harbouring IMP-1 incubated for 18 to 22 hrs imipenem by spectrophotometer based analysis. The format is functional. Conditions: time 18-22 hrs.
The subject of series [6] is Pseudomonas aeruginosa. The series can be described thus: Efflux ratio of MITC95 for potentiation of imipenem induced antibacterial activity against isogenic efflux wild type Pseudomonas aeruginosa MB9798 harbouring IMP to MITC95 for potentiation of imipenem induced antibacterial activity against isogenic efflux deleted mutant Pseudomonas aeruginosa MB9799 harbouring IMP. The format is functional.

Series [7] in a line: Inhibition of GST tagged IMP-1 (unknown origin) expressed in Escherichia coli BL21 Star (DE3) competent cells using CCF2-FA as substrate incubated for 2 hrs by fluorescence based analysis.
A short description of series [8]: MRT in rat at 1 mg/kg, iv measured after 24 hrs by HPLC-MS analysis. The format is ADME, organism-based. To be noted: in vivo.
Series [9] in a line: Cmax in Wistar rat at 90 mg/kg, iv measured after 24 hrs by HPLC-MS analysis. The format is ADME, organism-based. Conditions: in vivo.
The nature of series [10]: Inhibition of GST tagged VIM-2 (unknown origin) expressed in Escherichia coli BL21 Star (DE3) competent cells using CCF2-FA as substrate incubated for 2 hrs by fluorescence based analysis.
Series [11] in a line: Unbound fraction in rat plasma at 1 mg/kg, iv measured after 24 hrs by HPLC-MS analysis. The format is ADME, organism-based.
Series [12] is described as follows: AUC in rat at 1 mg/kg, iv measured after 24 hrs by HPLC-MS analysis. The series is classed as ADME, organism-based. Conditions: in vivo.
Series [13] can be described thus: Cmax in rat at 1 mg/kg, iv measured after 24 hrs by HPLC-MS analysis. The series is classed as ADME, organism-based. Conditions: in vivo.
Series [14] can be described thus: Clearance in rat at 1 mg/kg, iv measured after 24 hrs by HPLC-MS analysis. The series is classed as ADME, organism-based. To be noted: in vivo.
Series [15] can be described thus: Volume of distribution at steady state in rat at 1 mg/kg, iv measured after 24 hrs by HPLC-MS analysis. The series is classed as ADME, organism-based. Conditions: in vivo, read-out: Vdss.

On to `NS(=O)(=O)c1c(CC2CNC2)ccc(-c2ccc(C3CCNCC3)cc2)c1-c1nn[nH]n1`, for which the MITC95 in the series with Pseudomonas aeruginosa [1] was 3.1 µM; with Klebsiella pneumoniae, 1.6 µM; in the series with Pseudomonas aeruginosa [2] it was 0.8 µM; in the series with Escherichia coli, 0.8 µM; with Serratia marcescens it was 1.6 µM. Also, the IC50 (commonly the concentration that inhibits the measured activity by half) came to 11 nM in series [3], 7 nM in series [5] and 26 nM in series [7]. Also, the Cmax (usually the maximum level reached in the sampled fluid or tissue) in series [4] is 45 µM. Besides, the Ratio in the series with Pseudomonas aeruginosa [6] is reported as 4.

For the compound `Nc1ccc(-c2ccc(CC3CCNCC3)c(S(N)(=O)=O)c2-c2nn[nH]n2)cn1`, the MITC95 in the series with Pseudomonas aeruginosa [1] was found to be 50 µM; in the series on Klebsiella pneumoniae it was 4.2 µM; in the series on Pseudomonas aeruginosa [2] it was 12.5 µM; with Escherichia coli it was 0.6 µM; in the series with Serratia marcescens, 6.3 µM. Also, the IC50 in series [3] was determined as 12 nM; in series [5] it was 25 nM; in series [10], 140 nM; in [7], 164 nM. Moreover, in series [8], the MRT (in general, the average time that molecules of a dose stay in the body) was found to be 1.21 h. The Cmax in series [9] is 791 µM; in [13], 16.3 µM. For the same compound, the fraction unbound – broadly, the share of the substance not bound to proteins or other matrix – at 24 h in [11] was determined as 0.47. For the same compound, in series [12], the AUC – broadly, the area under the concentration-time curve, a measure of exposure – at 24 h stood at 11.7 µM·h. Besides, the clearance (in general, the rate of elimination divided by the concentration) in series [14] was 3.5 mL/min/kg. Also, the Ratio in the series with Pseudomonas aeruginosa [6] was found to be 4. Further, in series [15], the Vd came out at 0.25 L/kg.

For the origin of these results see ChEMBL document CHEMBL5518207, “Structure Guided Discovery of Novel Pan Metallo-β-Lactamase Inhibitors with Improved Gram-Negative Bacterial Cell Penetration” (J Med Chem, 2024).
